Experimental data published in US20090005444A1, “USE OF PROPOFOL PRODRUGS FOR TREATING ALCOHOL WITHDRAWAL, CENTRAL PAIN, ANXIETY OR PRURITUS” (XenoPort, Inc., priority 2007, published 2009).

Columns and labels:
pruritus = details: subhypnotic doses; cholestasis and spinal morphine administration; cited from earlier work
delirium tremens = details: sedative and subsedative doses of propofol; cited from earlier work
anxiety = details: animal studies; cited from earlier work
[1] = oral dosing in rats; cited from earlier work
central pain = details: subanesthetic dose 0.2 mg/kg IV; cited from earlier work
rats = assay: Acute toxicity study, single oral dose in rats; format: in vivo
Procedure: Acute toxicity studies in rats were undertaken to assess the tolerance of a single oral dose of compound (2) formulated in water. […] Complete recovery from hypoactivity, sedation, and anesthesia occurred in all rats within about 8 hours after dosing. Doses above about 1552 mg-eq/kg (about 800 mg-eq/kg of propofol) were not tested.

male rats = assay: Multiple dose study in rats, oral once a day for five days; format: in vivo; details: oral gavage once a day for five days, 49 to 97 mg-eq/kg propofol
Procedure: Multiple dose studies in rats were performed by orally administering compound (2) formulated in water to groups of male rats at doses of 49 mg-eq/kg to 97 mg-eq/kg propofol for a period of five days, by oral gavages administered once a day.

male beagle dogs = assay: Acute toxicity study, single oral dose in dogs; format: in vivo
Procedure: Acute toxicity studies were also performed by orally administering a single dose of compound (2) formulated in water to groups of male beagle dogs at doses from about 25 mg-eq/kg to about 150 mg-eq/kg propofol.

[2] = rats, single oral dose about 49 to about 388 mg-eq/kg propofol
[3] = rats, single oral dose about 582 to about 970 mg-eq/kg propofol
[4] = rats, single oral dose about 1164 to about 1552 mg-eq/kg propofol

SMILES	effect on pruritus (pruritus)	effect on symptoms of delirium tremens (delirium tremens)	anxiolytic effect (anxiety)	administered drug undergoing first pass metabolism [1]	effect on SCIP and CPSP central pain (central pain)	time to complete recovery from hypoactivity, sedation, and anesthesia (rats; all rats, after single oral dose) [h]	tolerance of a single oral dose (rats; rats, formulated in water, about 49 to about 1552 mg-eq/kg propofol)	onset of transient hypoactivity after dose (rats; [2]) [min]	transient hypoactivity maintained, time post dose (rats; [2])	onset of sedation after dosing (rats; [3]) [h]	sedation continued, time post dose (rats; [3])	anesthesia continued, time post dose (rats; [4])	onset of anesthesia after dosing (rats; [4]) [h]	adverse effects (male rats)	sedation or anesthesia (male rats)	tolerance of multiple oral doses (male rats)	tolerance of a single oral dose (male beagle dogs; formulated in water, about 25 to about 150 mg-eq/kg propofol)	sedation or anesthesia (male beagle dogs; single oral dose about 25 to about 150 mg-eq/kg propofol)
CC(C)c1cccc(C(C)C)c1O [propofol, 2,6-diisopropylphenol]	effective in controlling pruritus associated with cholestasis and spinal morphine administration	effective in reducing the symptoms of delirium tremens	exerts an anxiolytic effect independent of any sedative effect	approximately 90%	effective in reducing both SCIP and CPSP central pain													
CC(C)c1cccc(C(C)C)c1OC(=O)OC[C@H](N)C(=O)O [compound (2), (S)-2-amino-3-(2,6-diisopropyl-phenoxycarbonyloxy)-propanoic acid]						≤ 8	well tolerated	≤ 30	up to 4 hours	≤ 1.5	up to 4 hours	up to 2 hours	≤ 1	No adverse effects were observed	No sedation or anesthesia was observed	well tolerated	well tolerated	No sedation or anesthesia was observed
